Source: US7879822B2, “Stabilized sulforaphane” (Pharmagra Labs, Inc., priority 2007, dated 2011)

Columns and labels:
[1] = Extended stability study of stabilized sulforaphane compositions by HPLC (Example 2); format: physicochemical; settings: stored in a freezer
Experimental: The sulforaphane formulations were analyzed via HPLC (UV detection at 254 nm) using an internal standard (DEET) method. A sulforaphane standard (stored in a freezer) was used to determine the response factor for each analysis.
A ca. 300 mg (carefully weighed) formulation sample was dissolved in 8 mL of internal standard solution (DEET in DMF, ca 2 mg/mL). The amount of ISTD solution was also carefully weighed. The sample was further diluted with 8 mL of nitrogen sparged DI water. The samples were sonicated for ˜10 minutes and filtered through a 0.45 μm nylon filter. The samples were then analyzed by HPLC UV detection at 254 nm.
Chromatographic Conditions: • Column: Agilent Eclipse XDB-C18, 5 μm, 250×4.6 mm, […] @ 30° C. • Solvent A: 0.1% Formic acid in H2O • Solvent B: MeCN • Gradient: 5% to 100% Solvent B in Solvent A over 30 minutes • Flow: 1.5 mL/minute • Detector: UV 254 nm, ESI-MS (pos/neg) for confirmation • Retention Times: Sulforaphane: 9.2 minutes DEET: 15.5 minutes
Analysis Results: The results are presented as percent of the “time zero” load versus time.

[2] = Stability analysis of sulforaphane-cyclodextrin formulations by HPLC (Example 1); format: physicochemical; settings: stored in a freezer
Experimental: Analysis Overview: The sulforaphane formulations were analyzed via HPLC (UV detection at 254 nm) using an internal standard (DEET) method. An assumption is made that the sulforaphane completely disassociates from the cyclodextrin under the chromatographic conditions. A sulforaphane standard (stored in a freezer) is used to determine the response factor for each analysis.
Storage Conditions: The samples were stored under three conditions: Capped and at room temperature, capped and stored in the freezer (−30° C.), and open and stored in a 40° C. oven. These samples were analyzed for sulforaphane load over time. The stabilization of the different samples and different storage conditions may be seen in FIGS. 3-5.
Sample Preparation Example: A 20 mg to 50 mg (carefully weighed) formulation sample is dissolved in 1 mL of internal standard solution (DEET in DMF). The amount of ISTD solution is also carefully weighed. The sample is further diluted with 1 mL of nitrogen sparged deionized water. The samples are sonicated for approximately ten minutes and filtered through ha 0.45 μm nylon filter. The samples are then analyzed by HPLC UV detection at 254 nm.
Analysis Results: The results are presented as percent of theoretical load versus time (The calculation for theoretical was described above.)

## C[S+]([O-])CCCCN=C=S (racemic) [sulforaphane]
[1]
  stability of the standard (HPLC response factor over all analyses): stable
[2]
  stability of the standard (HPLC response factor over all analyses): stable
